Experimental data reported in paper PMC5892457, “Characterisation of novel biomass degradation enzymes from the genome of Cellulomonas fimi” (Enzyme and Microbial Technology, 2018).

Target: T1, AfsA (Cellulomonas fimi, UniProt F4H166)
T1 construct: gene Celf_3321; full ORF as BioBrick, E. coli JM109 crude lysate, untagged
T1 sequence (F4H166 1-506): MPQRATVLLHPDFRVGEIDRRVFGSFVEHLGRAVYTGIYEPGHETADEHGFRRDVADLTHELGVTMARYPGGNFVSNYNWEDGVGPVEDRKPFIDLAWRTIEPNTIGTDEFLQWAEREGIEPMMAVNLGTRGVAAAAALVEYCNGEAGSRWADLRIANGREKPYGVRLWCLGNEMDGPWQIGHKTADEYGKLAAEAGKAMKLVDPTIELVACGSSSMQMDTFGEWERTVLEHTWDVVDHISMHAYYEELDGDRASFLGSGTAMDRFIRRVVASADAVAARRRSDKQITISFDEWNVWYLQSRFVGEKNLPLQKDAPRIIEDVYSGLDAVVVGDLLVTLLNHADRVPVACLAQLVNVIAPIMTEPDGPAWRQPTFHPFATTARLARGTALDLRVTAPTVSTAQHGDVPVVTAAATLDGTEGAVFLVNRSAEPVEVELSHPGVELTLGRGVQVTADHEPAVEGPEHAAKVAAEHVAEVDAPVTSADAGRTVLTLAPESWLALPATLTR
Experiment: nitrophenol release at […] nm
Assay type: biochemical
Details: pH 5.0, 37 °C, E. coli lysate

Structure (SMILES)	nitrophenol release at 405 nm
O=[N+]([O-])c1ccc(O[C@@H]2O[C@@H](CO)[C@H](O)[C@H]2O)cc1 [PNPA, 4-nitrophenyl α-L-arabinofuranoside]	AfsA and AfsB have both arabinofuranoisdase and xylosidase activities
O=[N+]([O-])c1ccccc1O[C@@H]1OC[C@@H](O)[C@H](O)[C@H]1O [ONPX, 2-nitrophenyl β-D-xylopyranoside]	AfsA at this temperature and pH being more active with ONPX than PNPA
